{
  "source": "ChEMBL document CHEMBL1137167",
  "about": "“Potent inhibition of checkpoint kinase activity by a hymenialdisine-derived indoloazepine” (Bioorg Med Chem Lett, 2004)",
  "key": {"[1]": {"target": "Protein kinase C alpha type (Homo sapiens, UniProt P17252)", "assay": "In vitro inhibitory concentration against human protein kinase C alpha (PKCa) by using [gamma-33P]-ATP] as radioligand"}, "[2]": {"target": "Serine/threonine-protein kinase Chk2 (Homo sapiens, UniProt O96017)", "sequence (O96017 whole entry)": "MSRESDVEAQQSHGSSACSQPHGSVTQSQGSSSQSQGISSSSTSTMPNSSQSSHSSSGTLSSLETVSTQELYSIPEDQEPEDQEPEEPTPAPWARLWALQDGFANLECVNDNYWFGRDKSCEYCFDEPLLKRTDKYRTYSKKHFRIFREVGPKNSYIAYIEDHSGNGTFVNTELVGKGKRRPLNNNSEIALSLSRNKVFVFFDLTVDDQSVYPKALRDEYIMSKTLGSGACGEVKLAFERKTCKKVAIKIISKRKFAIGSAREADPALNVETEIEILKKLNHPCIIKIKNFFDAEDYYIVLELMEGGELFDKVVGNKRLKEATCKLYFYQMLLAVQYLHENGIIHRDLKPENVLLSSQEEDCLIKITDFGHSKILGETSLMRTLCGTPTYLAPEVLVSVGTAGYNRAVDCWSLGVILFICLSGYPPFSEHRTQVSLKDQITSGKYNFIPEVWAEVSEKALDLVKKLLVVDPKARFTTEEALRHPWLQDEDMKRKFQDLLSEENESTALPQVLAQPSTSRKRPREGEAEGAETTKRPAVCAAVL", "assay": "In vitro inhibitory concentration against checkpoint kinase 2 (Chk2) by using [gamma-33P]-ATP] as radioligand"}, "[3]": {"target": "Casein kinase II subunit alpha (Homo sapiens, UniProt P68400)", "sequence (P68400 whole entry)": "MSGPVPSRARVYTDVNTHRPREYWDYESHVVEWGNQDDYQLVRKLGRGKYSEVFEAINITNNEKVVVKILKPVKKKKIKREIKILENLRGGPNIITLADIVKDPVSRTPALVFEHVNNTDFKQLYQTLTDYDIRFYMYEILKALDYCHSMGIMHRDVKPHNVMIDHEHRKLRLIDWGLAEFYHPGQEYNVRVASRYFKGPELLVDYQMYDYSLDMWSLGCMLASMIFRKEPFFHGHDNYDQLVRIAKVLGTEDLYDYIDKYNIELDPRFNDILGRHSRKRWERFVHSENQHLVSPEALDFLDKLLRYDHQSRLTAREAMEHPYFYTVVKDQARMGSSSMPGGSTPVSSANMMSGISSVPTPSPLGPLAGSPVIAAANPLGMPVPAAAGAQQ", "assay": "In vitro inhibitory concentration against human casein kinase 2 (CK2) by using [gamma-33P]-ATP] as radioligand"}, "[4]": {"target": "T1, Serine/threonine-protein kinase Chk1 (Homo sapiens, UniProt O14757)", "T1 sequence (O14757 whole entry)": "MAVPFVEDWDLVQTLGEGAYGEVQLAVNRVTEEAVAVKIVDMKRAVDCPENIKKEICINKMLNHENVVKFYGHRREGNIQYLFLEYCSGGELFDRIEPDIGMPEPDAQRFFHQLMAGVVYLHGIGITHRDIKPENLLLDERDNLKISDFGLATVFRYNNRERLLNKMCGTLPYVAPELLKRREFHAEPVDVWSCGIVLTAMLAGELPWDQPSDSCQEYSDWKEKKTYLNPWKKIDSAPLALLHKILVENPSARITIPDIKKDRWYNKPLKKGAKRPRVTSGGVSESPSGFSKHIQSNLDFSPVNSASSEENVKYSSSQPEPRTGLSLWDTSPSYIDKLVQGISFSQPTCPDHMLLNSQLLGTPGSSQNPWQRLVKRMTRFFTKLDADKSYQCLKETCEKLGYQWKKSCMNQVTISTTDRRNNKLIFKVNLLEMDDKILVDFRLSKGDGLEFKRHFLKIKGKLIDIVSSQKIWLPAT", "assay": "In vitro inhibitory concentration against checkpoint kinase 1 (Chk1) by using [gamma-33P]-ATP] as radioligand"}, "[5]": {"target": "Casein kinase I isoform delta (Homo sapiens, UniProt P48730)", "sequence (P48730 whole entry, canonical isoform)": "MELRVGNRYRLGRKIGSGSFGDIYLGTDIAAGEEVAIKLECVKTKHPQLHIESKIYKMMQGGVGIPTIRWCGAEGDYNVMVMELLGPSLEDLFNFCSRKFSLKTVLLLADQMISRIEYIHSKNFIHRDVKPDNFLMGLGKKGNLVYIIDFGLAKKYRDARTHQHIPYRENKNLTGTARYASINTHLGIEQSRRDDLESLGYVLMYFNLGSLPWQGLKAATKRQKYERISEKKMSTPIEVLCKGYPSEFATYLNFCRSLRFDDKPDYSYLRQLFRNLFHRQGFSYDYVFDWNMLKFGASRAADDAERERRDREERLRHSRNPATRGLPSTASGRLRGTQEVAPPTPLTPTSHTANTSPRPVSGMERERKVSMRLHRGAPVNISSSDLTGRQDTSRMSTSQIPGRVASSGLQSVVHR", "assay": "In vitro inhibitory concentration against human casein kinase 1 delta (CK1 delta) by using [gamma-33P]-ATP] as radioligand"}, "[6]": {"target": "Protein kinase C beta type (Homo sapiens, UniProt P05771)", "sequence (P05771 whole entry)": "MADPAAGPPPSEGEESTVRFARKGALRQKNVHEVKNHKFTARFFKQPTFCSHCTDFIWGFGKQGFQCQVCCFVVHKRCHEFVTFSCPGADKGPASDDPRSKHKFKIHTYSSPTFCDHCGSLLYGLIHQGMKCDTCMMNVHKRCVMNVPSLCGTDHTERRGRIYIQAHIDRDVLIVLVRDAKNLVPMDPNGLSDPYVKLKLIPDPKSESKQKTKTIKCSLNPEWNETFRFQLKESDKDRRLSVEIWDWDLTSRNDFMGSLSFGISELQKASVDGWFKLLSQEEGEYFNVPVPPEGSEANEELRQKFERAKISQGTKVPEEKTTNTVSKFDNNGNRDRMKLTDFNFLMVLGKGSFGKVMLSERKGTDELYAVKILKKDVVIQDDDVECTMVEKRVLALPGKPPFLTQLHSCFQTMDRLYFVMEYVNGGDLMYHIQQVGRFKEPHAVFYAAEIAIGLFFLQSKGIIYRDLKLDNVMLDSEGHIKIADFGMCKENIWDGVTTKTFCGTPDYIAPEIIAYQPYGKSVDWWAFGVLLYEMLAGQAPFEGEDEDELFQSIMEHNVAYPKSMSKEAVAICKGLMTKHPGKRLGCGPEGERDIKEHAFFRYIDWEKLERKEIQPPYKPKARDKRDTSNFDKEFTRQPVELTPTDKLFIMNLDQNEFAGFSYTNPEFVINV", "assay": "In vitro inhibitory concentration against human protein kinase C beta-2 (PKCbetaII) by using [gamma-33P]-ATP] as radioligand"}},
  "data": [
    {"smiles": "Nc1nc(C2=C3C(=Nc4ccccc43)C(=O)NCC2)c(O)[nH]1", "values": [
      {"measurement": "IC50", "setting": "[1]", "result": 2540, "unit": "nM"},
      {"measurement": "IC50", "setting": "[2]", "result": 8, "unit": "nM"},
      {"measurement": "IC50", "setting": "[3]", "result": "> 10000", "unit": "nM"},
      {"measurement": "IC50", "setting": "[4]", "result": 237, "unit": "nM"},
      {"measurement": "IC50", "setting": "[5]", "result": 1350, "unit": "nM"},
      {"measurement": "IC50", "setting": "[6]", "result": 3380, "unit": "nM"}
    ]},
    {"smiles": "NC1=N/C(=C2/CCNC(=O)c3[nH]ccc32)C(=O)N1", "note": "[DEBROMOHYMENIALDISINE]", "values": [
      {"measurement": "IC50", "setting": "[2]", "result": 183, "unit": "nM"},
      {"measurement": "IC50", "setting": "[4]", "result": 725, "unit": "nM"}
    ]},
    {"smiles": "NC1=NC(=O)/C(=C2\\CCNC(=O)c3[nH]c(Br)cc32)N1", "note": "[HYMENIALDISINE]", "values": [
      {"measurement": "IC50", "setting": "[2]", "result": 42, "unit": "nM"},
      {"measurement": "IC50", "setting": "[3]", "result": 7000, "unit": "nM"},
      {"measurement": "IC50", "setting": "[4]", "result": 1950, "unit": "nM"},
      {"measurement": "IC50", "setting": "[5]", "result": 35, "unit": "nM"}
    ]}
  ]
}
